Results as given in patent US12447153B2, “HER2 mutation inhibitors” (Array BioPharma Inc., priority 2021, dated 2025).

Key:
ErbB2 WT = ErbB2 WT (Homo sapiens (Human), UniProt P04626); assay: ErbB Enzyme Assay (HTRF KinEASE-TK), Assay 2; format: biochemical
EGFR wild type (EGFR WT) = EGFR wild type (EGFR WT) (Homo sapiens (Human), UniProt P00533); assay: Cellular Phosphorylation Assay, Assay 5 (EGF-stimulated EGFR phosphorylation, NIH 3T3 cells); format: cell-based
[1] = biological target: ErbB2 with Exon 20 YVMA insertion (HER2-YVMA) (Homo sapiens (Human), UniProt P04626, INS775YVMA); assay: Cellular Phosphorylation Assay, Assay 4 (constitutive ErbB2 phosphorylation, NIH 3T3 cells); format: cell-based
EGFR = EGFR (Homo sapiens (Human), UniProt P00533); assay: ErbB Enzyme Assay (HTRF KinEASE-TK), Assay 3; format: biochemical
[2] = cellular EGFR WT phosphorylation, EGF-stimulated
[3] = cellular ErbB2 YVMA phosphorylation
[4] = EGF-stimulated EGFR WT phosphorylation

Sequence of ErbB2 WT (P04626 23-1255): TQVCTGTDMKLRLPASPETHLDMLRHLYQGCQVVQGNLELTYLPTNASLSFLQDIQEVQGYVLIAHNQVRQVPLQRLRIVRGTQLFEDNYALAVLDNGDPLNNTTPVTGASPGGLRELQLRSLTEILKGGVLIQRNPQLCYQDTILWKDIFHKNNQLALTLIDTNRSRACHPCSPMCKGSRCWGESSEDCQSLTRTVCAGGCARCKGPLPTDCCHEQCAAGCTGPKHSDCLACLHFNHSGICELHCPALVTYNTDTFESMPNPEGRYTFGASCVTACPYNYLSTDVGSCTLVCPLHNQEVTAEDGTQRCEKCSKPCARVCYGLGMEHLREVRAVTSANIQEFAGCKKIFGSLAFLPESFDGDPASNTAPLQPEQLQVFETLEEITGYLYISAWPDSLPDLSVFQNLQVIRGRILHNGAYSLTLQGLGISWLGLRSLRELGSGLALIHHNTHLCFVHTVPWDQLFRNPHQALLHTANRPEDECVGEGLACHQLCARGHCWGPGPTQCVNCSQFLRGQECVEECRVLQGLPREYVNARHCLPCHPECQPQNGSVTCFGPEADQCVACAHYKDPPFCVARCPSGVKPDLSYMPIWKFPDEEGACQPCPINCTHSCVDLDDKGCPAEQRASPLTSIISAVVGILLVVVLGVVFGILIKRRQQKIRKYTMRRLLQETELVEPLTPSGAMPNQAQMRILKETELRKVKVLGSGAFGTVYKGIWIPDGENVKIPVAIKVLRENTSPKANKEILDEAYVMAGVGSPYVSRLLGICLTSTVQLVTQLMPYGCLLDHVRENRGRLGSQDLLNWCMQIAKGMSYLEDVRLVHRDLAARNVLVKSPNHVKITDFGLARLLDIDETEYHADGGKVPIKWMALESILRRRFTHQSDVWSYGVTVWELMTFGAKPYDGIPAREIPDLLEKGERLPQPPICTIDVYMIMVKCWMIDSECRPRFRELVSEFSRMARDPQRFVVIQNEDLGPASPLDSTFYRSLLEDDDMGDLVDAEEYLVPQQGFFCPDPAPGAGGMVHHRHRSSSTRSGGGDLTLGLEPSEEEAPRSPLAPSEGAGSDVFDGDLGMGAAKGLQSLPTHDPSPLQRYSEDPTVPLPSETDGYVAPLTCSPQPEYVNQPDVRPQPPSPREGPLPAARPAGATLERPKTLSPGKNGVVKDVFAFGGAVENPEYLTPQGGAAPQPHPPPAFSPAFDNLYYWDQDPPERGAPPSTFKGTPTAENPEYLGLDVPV
Sequence of EGFR wild type (EGFR WT) (P00533 25-1210): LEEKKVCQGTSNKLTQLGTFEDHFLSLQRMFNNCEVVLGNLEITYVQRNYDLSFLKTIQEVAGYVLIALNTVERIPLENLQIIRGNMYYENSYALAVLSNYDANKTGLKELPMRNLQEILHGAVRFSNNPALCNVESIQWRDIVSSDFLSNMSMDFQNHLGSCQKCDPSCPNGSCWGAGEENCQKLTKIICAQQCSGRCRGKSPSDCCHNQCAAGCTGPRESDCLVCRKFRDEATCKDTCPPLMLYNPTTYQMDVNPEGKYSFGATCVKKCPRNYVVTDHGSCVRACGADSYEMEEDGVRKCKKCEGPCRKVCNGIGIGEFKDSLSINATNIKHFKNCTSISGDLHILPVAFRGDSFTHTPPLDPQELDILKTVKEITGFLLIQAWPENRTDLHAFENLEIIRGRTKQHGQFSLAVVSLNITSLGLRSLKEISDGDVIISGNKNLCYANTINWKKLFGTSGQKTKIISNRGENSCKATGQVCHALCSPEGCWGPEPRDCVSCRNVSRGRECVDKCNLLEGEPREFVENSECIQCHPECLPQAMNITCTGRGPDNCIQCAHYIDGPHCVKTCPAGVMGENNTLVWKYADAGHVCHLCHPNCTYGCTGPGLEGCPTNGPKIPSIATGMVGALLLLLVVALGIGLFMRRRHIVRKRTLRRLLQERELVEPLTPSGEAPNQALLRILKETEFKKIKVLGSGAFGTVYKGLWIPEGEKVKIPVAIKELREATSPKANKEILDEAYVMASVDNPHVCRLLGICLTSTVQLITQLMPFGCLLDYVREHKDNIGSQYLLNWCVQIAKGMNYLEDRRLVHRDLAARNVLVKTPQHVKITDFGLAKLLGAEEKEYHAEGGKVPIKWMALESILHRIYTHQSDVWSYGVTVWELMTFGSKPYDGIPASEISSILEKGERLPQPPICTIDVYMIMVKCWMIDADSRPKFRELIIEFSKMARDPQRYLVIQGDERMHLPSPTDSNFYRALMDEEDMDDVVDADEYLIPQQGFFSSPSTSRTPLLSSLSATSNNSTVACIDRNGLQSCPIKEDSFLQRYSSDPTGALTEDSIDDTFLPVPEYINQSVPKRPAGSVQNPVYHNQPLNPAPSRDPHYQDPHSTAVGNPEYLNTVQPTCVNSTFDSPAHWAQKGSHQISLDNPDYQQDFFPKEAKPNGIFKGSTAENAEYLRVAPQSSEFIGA
Sequence of EGFR (P00533 25-1210): as above
Sequence of ErbB2 with Exon 20 YVMA insertion (HER2-YVMA) (P04626 other isoform, or with tags, fused parts or gaps ins YVMA behind 775): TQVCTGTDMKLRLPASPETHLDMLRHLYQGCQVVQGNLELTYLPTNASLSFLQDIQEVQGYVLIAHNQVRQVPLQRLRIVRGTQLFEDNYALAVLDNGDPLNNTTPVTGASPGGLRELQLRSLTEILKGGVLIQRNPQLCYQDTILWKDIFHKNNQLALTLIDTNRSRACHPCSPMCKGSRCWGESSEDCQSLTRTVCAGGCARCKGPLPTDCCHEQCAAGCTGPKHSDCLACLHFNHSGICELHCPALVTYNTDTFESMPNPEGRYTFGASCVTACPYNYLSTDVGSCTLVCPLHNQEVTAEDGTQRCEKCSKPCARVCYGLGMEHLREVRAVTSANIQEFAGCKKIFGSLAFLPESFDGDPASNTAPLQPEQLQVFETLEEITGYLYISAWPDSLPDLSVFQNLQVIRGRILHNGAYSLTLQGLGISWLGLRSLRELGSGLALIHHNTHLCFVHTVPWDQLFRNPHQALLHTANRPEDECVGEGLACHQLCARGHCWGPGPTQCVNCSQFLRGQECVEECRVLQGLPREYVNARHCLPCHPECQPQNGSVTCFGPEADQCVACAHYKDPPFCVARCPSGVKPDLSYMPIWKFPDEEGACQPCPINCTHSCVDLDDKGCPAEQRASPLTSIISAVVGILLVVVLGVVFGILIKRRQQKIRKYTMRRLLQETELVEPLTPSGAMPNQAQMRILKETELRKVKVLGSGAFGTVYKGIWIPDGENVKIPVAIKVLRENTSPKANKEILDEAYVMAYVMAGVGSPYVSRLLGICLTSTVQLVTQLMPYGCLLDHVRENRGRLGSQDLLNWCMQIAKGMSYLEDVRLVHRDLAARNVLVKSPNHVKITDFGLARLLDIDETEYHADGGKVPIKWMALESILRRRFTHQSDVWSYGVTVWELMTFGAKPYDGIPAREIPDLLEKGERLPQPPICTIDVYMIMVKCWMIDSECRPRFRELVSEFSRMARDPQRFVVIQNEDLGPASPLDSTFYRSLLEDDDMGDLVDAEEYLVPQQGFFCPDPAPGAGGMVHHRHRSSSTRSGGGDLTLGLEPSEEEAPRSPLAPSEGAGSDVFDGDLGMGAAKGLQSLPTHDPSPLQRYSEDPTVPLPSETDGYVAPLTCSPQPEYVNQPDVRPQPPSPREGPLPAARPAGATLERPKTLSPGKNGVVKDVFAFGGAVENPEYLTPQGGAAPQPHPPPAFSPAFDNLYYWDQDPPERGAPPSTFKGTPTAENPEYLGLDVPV

IC50 (ErbB2 WT; ErbB2 WT enzyme assay) [nM] | IC50 (EGFR wild type (EGFR WT); [2]) [nM] | IC50 [1, 3] [nM] | IC50 (EGFR; EGFR enzyme assay) [nM] | IC50 (ErbB2 WT; ErbB2 WT enzyme) [nM] | IC50 (EGFR wild type (EGFR WT); [4]) [nM] | IC50 ([1]; ErbB2 YVMA phosphorylation) [nM] | IC50 (EGFR; EGFR enzyme) [nM] | SMILES
33.5 | 4490 | 36 | 2110 | – | – | – | – | C=CC(=O)N1CCCCC(c2ccc3ncnc(Nc4cc(C)c(Oc5ccn6ncnc6c5)cc4F)c3n2)C1 (centres unmarked) [Example 376]
– | – | – | – | 6.8 | 153 | 6.1 | 84.5 | C=CC(=O)N1CC[C@@H]2C[C@H]1CN2c1ccc2ncnc(Nc3cc(C)c(Oc4ccc5c(c4)ncn5C)cc3F)c2n1 [Example 66, 1-((1S,5R)-6-(4-((2-fluoro-5-methyl-4-((1-methyl-1H-benzo[d]imidazol-5-yl)oxy)phenyl)amino)pyrido[3,2-d]pyrimidin-6-yl)-2,6-diazabicyclo[3.2.1]octan-2-yl)prop-2-en-1-one]
119 | ≥ 5000 | 68.8 | ≥ 10000 | – | – | – | – | CC#CC(=O)N1CC[C@@H]2C[C@H]1CN2c1ccc2ncnc(Nc3cc(Cl)c(Oc4ccn5ncnc5c4)cc3F)c2n1 [Example 315]
7 | 68.9 | 4.9 | 108 | – | – | – | – | C=CC(=O)N1CCN(c2ccc3ncnc(Nc4ccc(Oc5ccn6ncnc6c5)c(C)c4F)c3n2)CC12CC2 [Example 338]
91.9 | ≥ 5000 | 56.2 | 7510 | – | – | – | – | C=CC(=O)N1CCN(c2ccc3ncnc(Nc4cnc(Oc5ccn6ncnc6c5)c(C)c4)c3n2)CC1(C)C [Example 449]
– | – | – | – | 314 | ≥ 5000 | 73.4 | ≥ 10000 | CC#CC(=O)N1CCN(c2ccc3ncnc(Nc4ccc(Oc5ccn6ncnc6c5)c(C)c4F)c3n2)C[C@@H]1COC [Example 180, (R)-1-(4-(4-((4-([1,2,4]triazolo[1,5-a]pyridin-7-yloxy)-2-fluoro-3-methylphenyl)amino)pyrido[3,2-d]pyrimidin-6-yl)-2-(methoxymethyl)piperazin-1-yl)but-2-yn-1-one]
370 | 3440 | 87.6 | ≥ 10000 | – | – | – | – | C=CC(=O)N1CCN(c2ccc3ncnc(Nc4ccc(Oc5ccn6ncnc6c5)cc4C(F)(F)F)c3n2)CC1(C)C [Example 448]
– | – | – | – | 126 | 1880 | 15.4 | 2430 | C=CC(=O)N1C[C@H]2C[C@@H]1CN2c1ccc2ncnc(Nc3ccc(Oc4ccn5ncnc5c4)c(Cl)c3F)c2n1 [Example 92, 1-((1R,4R)-5-(4-((4-([1,2,4]triazolo[1,5-a]pyridin-7-yloxy)-3-chloro-2-fluorophenyl)amino)pyrido[3,2-d]pyrimidin-6-yl)-2,5-diazabicyclo[2.2.1]heptan-2-yl)prop-2-en-1-one]
– | – | – | – | 11.7 | 879 | 35.3 | 553 | CC#CC(=O)N1CCN(c2ccc3ncnc(Nc4ccc(Oc5ccn6ncnc6c5)c(Cl)c4F)c3n2)CC12CC2 [Example 181, 1-(7-(4-((4-([1,2,4]triazolo[1,5-a]pyridin-7-yloxy)-3-chloro-2-fluorophenyl)amino)pyrido[3,2-d]pyrimidin-6-yl)-4,7-diazaspiro[2.5]octan-4-yl)but-2-yn-1-one]
– | – | – | – | 13.4 | 575 | 5.9 | 519 | C=CC(=O)N1CCN(c2ccc3ncnc(Nc4ccc(Oc5ccn6ncnc6c5)c(Cl)c4F)c3n2)C[C@@H]1C [Example 90, (S)-1-(4-(4-((4-([1,2,4]triazolo[1,5-a]pyridin-7-yloxy)-3-chloro-2-fluorophenyl)amino)pyrido[3,2-d]pyrimidin-6-yl)-2-methylpiperazin-1-yl)prop-2-en-1-one]
162 | ≥ 5000 | 31 | ≥ 10000 | – | – | – | – | C=CC(=O)N1CCN(c2ccc3ncnc(Nc4ccc(Oc5ccc6c(c5)ncn6C)c(C)c4F)c3n2)C[C@H]1C(C)C [Example 253]
13 | 426 | 16.3 | 187 | – | – | – | – | C=CC(=O)N1CCCCC(c2ccc3ncnc(Nc4ccc(Oc5ccn6ncnc6c5)c(C)c4F)c3n2)C1 (centres unmarked) [Example 377]
15.5 | 110 | 8.4 | 432 | – | – | – | – | C=CC(=O)N1CCN(c2ccc3ncnc(Nc4ccc(Oc5ccn6ncnc6c5)c(C)c4F)c3n2)CC12CCC2 [Example 308]
10000 | ≥ 5000 | 99.9 | ≥ 10000 | – | – | – | – | C=CC(=O)N1[C@@H](C)CN(c2ccc3ncnc(Nc4cc(Cl)c(Oc5ccc6c(c5)ncn6C)cc4F)c3n2)C[C@@H]1C [Example 258]
44 | 117 | 6.4 | 268 | – | – | – | – | C=CC(=O)N1CC[C@@H]2C[C@H]1CN2c1ccc2ncnc(Nc3ccc(Oc4cnc5c(c4)ncn5C)c(C)c3F)c2n1 [Example 317]
– | – | – | – | 16.4 | 503 | 20.1 | 872 | C=CC(=O)N1CCC[C@@H](c2ccc3ncnc(Nc4ccc(Oc5ccn6ncnc6c5)c(C)c4F)c3n2)CC1 (single isomer, unassigned) [Example 209]
24.9 | ≥ 5000 | 67.9 | ≥ 10000 | – | – | – | – | C=CC(=O)N1CCN(c2ccc3ncnc(Nc4cc(C)c(Oc5ccn6ncnc6c5)cc4F)c3n2)C[C@@H]1C1CC1 [Example 284]
54 | ≥ 5000 | 66.3 | 4560 | – | – | – | – | C=CC(=O)N1C[C@@H]2C[C@H]1CC[C@@H]2c1ccc2ncnc(Nc3cc(C)c(Oc4ccc5c(c4)ncn5C)cc3F)c2n1 [Example 378]
36.3 | ≥ 5000 | 459 | 1920 | – | – | – | – | C=CC(=O)N1CC[C@H]2C[C@@H]1CN2c1ccc2ncnc(Nc3ccc(Oc4ccn5ncnc5c4)c(Cl)c3F)c2n1 [Example 436]
– | – | – | – | 11.3 | 111 | 7.8 | 300 | C=CC(=O)N1CCC(Oc2nc3c(Nc4ccc(Oc5ccn6ncnc6c5)c(C)c4F)ncnc3cc2OC)CC1 [Example 40, 1-(4-((4-((4-([1,2,4]triazolo[1,5-a]pyridin-7-yloxy)-2-fluoro-3-methylphenyl)amino)-7-methoxypyrido[3,2-d]pyrimidin-6-yl)oxy)piperidin-1-yl)prop-2-en-1-one]
– | – | – | – | 261 | ≥ 5000 | 44.9 | ≥ 10000 | C=CC(=O)N1C[C@@H](c2ccc3ncnc(Nc4cc(C)c(Oc5ccc6c(c5)ncn6C)cc4F)c3n2)CC[C@H]1C [Example 170, 1-((2R,5S)-5-(4-((2-fluoro-5-methyl-4-((1-methyl-1H-benzo[d]imidazol-5-yl)oxy)phenyl)amino)pyrido[3,2-d]pyrimidin-6-yl)-2-methylpiperidin-1-yl)prop-2-en-1-one]
– | – | – | – | 338 | 666 | 50.2 | 1210 | C=CC(=O)N1CCN(c2ccc3ncnc(Nc4ccc(Oc5ccc6scnc6c5)c(C)c4F)c3n2)CC1(C)C [Example 243, 1-(4-(4-((4-(benzo[d]thiazol-5-yloxy)-2-fluoro-3-methylphenyl)amino)pyrido[3,2-d]pyrimidin-6-yl)-2,2-dimethylpiperazin-1-yl)prop-2-en-1-one]
7.3 | 35.6 | 5.3 | 68.3 | – | – | – | – | C=CC(=O)N1CCN(c2ccc3ncnc(Nc4ccc(Oc5ccn6ncnc6c5)c(Cl)c4F)c3n2)CC1C(F)F (centres unmarked) [Example 366]
– | – | – | – | 54.3 | 1210 | 49.4 | ≥ 10000 | C=CC(=O)N1CCC(Sc2ccc3ncnc(Nc4ccc(Oc5ccn6ncnc6c5)c(C)c4F)c3n2)CC1 [Example 60, 1-(4-((4-((4-([1,2,4]triazolo[1,5-a]pyridin-7-yloxy)-2-fluoro-3-methylphenyl)amino)pyrido[3,2-d]pyrimidin-6-yl)thio)piperidin-1-yl)prop-2-en-1-one]
– | – | – | – | 8.5 | 382 | 22.6 | 153 | C=CC(=O)N1CCC2CN(c3nc4c(Nc5ccc(Oc6ccn7ncnc7c6)c(Cl)c5F)ncnc4cc3OC)CC21 (centres unmarked) [Example 38, 1-(5-(4-((4-([1,2,4]triazolo[1,5-a]pyridin-7-yloxy)-3-chloro-2-fluorophenyl)amino)-7-methoxypyrido[3,2-d]pyrimidin-6-yl)hexahydropyrrolo[3,4-b]pyrrol-1(2H)-yl)prop-2-en-1-one]

SMILES | IC50 (ErbB2 WT; ErbB2 WT enzyme assay) [nM] | IC50 (EGFR wild type (EGFR WT); [2]) [nM] | IC50 [1, 3] [nM] | IC50 (EGFR; EGFR enzyme assay) [nM] | IC50 (ErbB2 WT; ErbB2 WT enzyme) [nM] | IC50 (EGFR wild type (EGFR WT); [4]) [nM] | IC50 ([1]; ErbB2 YVMA phosphorylation) [nM] | IC50 (EGFR; EGFR enzyme) [nM]
C=CC(=O)N1C2CC1CN(c1ccc3ncnc(Nc4ccc(Oc5cnc6c(c5)ncn6C)c(C)c4F)c3n1)C2 [Example 438] | 352 | ≥ 5000 | 9.8 | ≥ 10000 | – | – | – | –
CC#CC(=O)N1[C@@H]2CC[C@H]1C[C@@H](c1ccc3ncnc(Nc4cc(C)c(Oc5ccn6ncnc6c5)cc4F)c3n1)C2 [Example 208, 1-((1R,3r,5S)-3-(4-((4-([1,2,4]triazolo[1,5-a]pyridin-7-yloxy)-2-fluoro-5-methylphenyl)amino)pyrido[3,2-d]pyrimidin-6-yl)-8-azabicyclo[3.2.1]octan-8-yl)but-2-yn-1-one] | – | – | – | – | 172 | ≥ 5000 | 328 | ≥ 10000
C=CC(=O)N1[C@H]2CC[C@@H]1[C@H](c1ccc3ncnc(Nc4cc(C)c(Oc5ccn6ncnc6c5)cc4F)c3n1)CC2 [Example 428] | 62.4 | 954 | 24.7 | 1480 | – | – | – | –
C=CC(=O)N1C2CC1CN(c1ccc3ncnc(Nc4cc(Cl)c(Oc5cnc6c(c5)ncn6C)cc4F)c3n1)C2 [Example 241, 1-(3-(4-((5-chloro-2-fluoro-4-((3-methyl-3H-imidazo[4,5-b]pyridin-6-yl)oxy)phenyl)amino)pyrido[3,2-d]pyrimidin-6-yl)-3,6-diazabicyclo[3.1.1]heptan-6-yl)prop-2-en-1-one] | – | – | – | – | 354 | ≥ 5000 | 22.2 | ≥ 10000
